Patent US20240025907A1, “QUINAZOLINE PAN-KRas INHIBITORS” (Mirati Therapeutics, Inc., priority 2022, published 2024)
Read-outs that look alike come from different tables or passages of the source.

How the values were obtained:
KRas^G12V = target: T1, KRas^G12V (Homo sapiens, UniProt P01116, G12V); assay: KRas TR-FRET tracer displacement binding assay, G12V; conditions: 60-minute incubation
T1 construct: Biotinylated KRas (corresponding to amino acids 1-169, produced at Accelegan Inc.); biotin (biotinylated); purchased Accelegan Inc
T1 sequence (P01116 1-169 isoform P01116-2 G12V): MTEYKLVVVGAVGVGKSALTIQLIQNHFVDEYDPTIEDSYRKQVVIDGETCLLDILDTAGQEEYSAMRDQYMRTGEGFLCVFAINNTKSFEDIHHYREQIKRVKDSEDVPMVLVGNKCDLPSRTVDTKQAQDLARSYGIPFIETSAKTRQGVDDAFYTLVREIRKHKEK
Experimental: (§1) KRas^WT, KRas^G12A, KRas^G12C, KRas^G12D, KRas^G12R, KRas^G12S, KRas^G12V, KRas^G13D, or KRas^Q61H was used in the assay.
(§2) The ability of a compound to bind to KRas was measured using a TR-FRET displacement assay. Biotinylated KRas (corresponding to amino acids 1-169, produced at Accelegan Inc.) was incubated with custom made Cy5 labelled tracer, terbium streptavidin (Cisbio Inc.) and compound (1% DMSO final) in buffer (50 mM HEPES, pH 7.5, 5 mM MgCl2, 0.005% Tween-20 and 1 mM DTT). After a 60-minute incubation at room temperature, the reaction was measured using a BMG LABTECH CLARIO star Plus via TR-FRET.

[1] = tested on: KRas-mediated Phosphorylation of ERK in HCT116 cells; assay: Cisbio HTRF pERK assay, HCT116 cells; type: cell-based; conditions: HCT116 cells, 3 hrs compound, read-out: Inhibition (HTRF IC50 nM) of KRas-mediated Phosphorylation of ERK, HCT116
KRas^G12C = target: T2, KRas^G12C (Homo sapiens, UniProt P01116, G12C); assay: KRas TR-FRET tracer displacement binding assay, G12C; conditions: 60-minute incubation
T2 construct: Biotinylated KRas (corresponding to amino acids 1-169, produced at Accelegan Inc.); biotin (biotinylated); purchased Accelegan Inc
T2 sequence (P01116 1-169 isoform P01116-2 G12C): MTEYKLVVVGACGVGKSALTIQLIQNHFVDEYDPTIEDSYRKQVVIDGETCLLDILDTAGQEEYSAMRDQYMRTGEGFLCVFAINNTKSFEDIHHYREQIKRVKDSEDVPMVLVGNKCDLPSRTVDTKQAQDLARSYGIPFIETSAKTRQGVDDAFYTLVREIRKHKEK
Experimental: as §1, §2

[2] = tested on: KRas-mediated Phosphorylation of ERK in PSN1 cells; assay: Cisbio HTRF pERK assay, PSN1 cells; type: cell-based; conditions: 3 hour compound, read-out: Inhibition (HTRF IC50 nM) of KRas-mediated Phosphorylation of ERK, PSN1
Experimental: (§3) Inhibition of KRas Phosphorylation of ERK (HTRF) by Exemplary Compounds of Formula (I) • Cisbio HTRF Advanced pERK Assay Catalog #64AERPEH • Cell: MKN1, PSN1 • Procedure: • Day 1: Seed 6,000 cells/well −25 μl/well in 384-well white solid bottom plate; RPM1_10% FBS.

[3] = tested on: KRas-mediated Phosphorylation of ERK in H358 cells; assay: Cisbio HTRF pERK assay, H358 cells; type: cell-based; conditions: H358 cells, 3 hrs compound, read-out: Inhibition (HTRF IC50 nM) of KRas-mediated Phosphorylation of ERK, H358
[4] = tested on: KRas-mediated Phosphorylation of ERK in A549 cells; assay: Cisbio HTRF pERK assay, A549 cells; type: cell-based; conditions: A549 cells, 3 hrs compound, read-out: Inhibition (HTRF IC50 nM) of KRas-mediated Phosphorylation of ERK, A549
[5] = tested on: KRas-mediated Phosphorylation of ERK in AsPC-1 cells; assay: Cisbio HTRF pERK assay, AsPC-1 cells; type: cell-based; conditions: 3 hrs compound, read-out: Inhibition (HTRF IC50 nM) of KRas-mediated Phosphorylation of ERK, AsPC-1
[6] = tested on: KRas-mediated Phosphorylation of ERK in H2009 cells; assay: Cisbio HTRF pERK assay, H2009 cells; type: cell-based; conditions: read-out: Inhibition (HTRF IC50 nM) of KRas-mediated Phosphorylation of ERK, H2009
KRas^G12S = target: T3, KRas^G12S (Homo sapiens, UniProt P01116, G12S); assay: KRas TR-FRET tracer displacement binding assay, G12S; conditions: 60-minute incubation
T3 construct: Biotinylated KRas (corresponding to amino acids 1-169, produced at Accelegan Inc.); biotin (biotinylated); purchased Accelegan Inc
T3 sequence (P01116 1-169 isoform P01116-2 G12S): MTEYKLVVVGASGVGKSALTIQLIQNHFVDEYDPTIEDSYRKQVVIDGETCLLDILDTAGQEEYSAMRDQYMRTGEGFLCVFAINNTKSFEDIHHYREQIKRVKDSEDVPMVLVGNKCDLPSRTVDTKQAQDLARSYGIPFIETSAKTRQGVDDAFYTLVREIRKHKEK
Experimental: as §1, §2

[7] = tested on: KRas-mediated Phosphorylation of ERK in H727 cells; assay: Cisbio HTRF pERK assay, H727 cells; type: cell-based; conditions: 3 hrs compound, read-out: Inhibition (HTRF IC50 nM) of KRas-mediated Phosphorylation of ERK, H727
[8] = tested on: KRas-mediated Phosphorylation of ERK in H460 cells; assay: Cisbio HTRF pERK assay, H460 cells; type: cell-based; conditions: H460 cells, 3 hrs compound, read-out: Inhibition (HTRF IC50 nM) of KRas-mediated Phosphorylation of ERK, H460
KRas^G12D = target: T4, KRas^G12D (Homo sapiens, UniProt P01116, G12D); assay: KRas TR-FRET tracer displacement binding assay, G12D; conditions: 60-minute incubation
T4 construct: Biotinylated KRas (corresponding to amino acids 1-169, produced at Accelegan Inc.); biotin (biotinylated); purchased Accelegan Inc
T4 sequence (P01116 1-169 isoform P01116-2 G12D): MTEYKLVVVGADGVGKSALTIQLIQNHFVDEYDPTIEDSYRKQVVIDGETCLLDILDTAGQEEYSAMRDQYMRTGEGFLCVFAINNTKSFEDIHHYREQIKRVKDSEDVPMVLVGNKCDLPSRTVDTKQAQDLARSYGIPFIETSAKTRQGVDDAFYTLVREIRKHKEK
Experimental: as §1, §2

KRas^WT = target: T5, KRas^WT (Homo sapiens, UniProt P01116); assay: KRas TR-FRET tracer displacement binding assay, WT; conditions: 60-minute incubation
T5 construct: Biotinylated KRas (corresponding to amino acids 1-169, produced at Accelegan Inc.); biotin (biotinylated); purchased Accelegan Inc
T5 sequence (P01116 1-169 isoform P01116-2): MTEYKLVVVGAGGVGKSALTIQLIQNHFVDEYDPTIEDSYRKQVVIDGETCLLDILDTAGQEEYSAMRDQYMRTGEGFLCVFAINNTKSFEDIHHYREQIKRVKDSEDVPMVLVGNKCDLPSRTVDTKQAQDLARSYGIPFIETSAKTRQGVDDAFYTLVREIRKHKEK
Experimental: as §1, §2

[9] = tested on: KRas-mediated Phosphorylation of ERK in MKN1 cells; assay: Cisbio HTRF pERK assay, MKN1 cells; type: cell-based; conditions: Homo sapiens, MKN-1, 3 hour compound, read-out: Inhibition (HTRF IC50 nM) of KRas-mediated Phosphorylation of ERK, MKN1
Experimental: as §3

[10] = Homo sapiens, NCI-H2009, H2009 cells

Row | SMILES | IC50 (KRas^G12V) [nM] | IC50 ([1]; Homo sapiens, HCT-116, 3 h) [nM] | IC50 (KRas^G12C) [nM] | IC50 ([2]; Homo sapiens, PSN1, 3 h) [nM] | IC50 ([3]; Homo sapiens, NCI-H358, 3 h) [nM] | IC50 ([4]; Homo sapiens, A549, 3 h) [nM] | IC50 ([5]; Homo sapiens, ASPC1, 3 h) [nM] | IC50 [6, 10] [nM] | IC50 (KRas^G12S) [nM] | IC50 ([7]; Homo sapiens, NCI-H727, 3 h) [nM] | IC50 ([8]; Homo sapiens, NCI-H460, 3 h) [nM] | IC50 (KRas^G12D) [nM] | IC50 (KRas^WT) [nM] | IC50 [9] [nM] | IC50 [1] [nM] | IC50 [3] [nM] | IC50 [4] [nM] | IC50 [5] [nM] | IC50 [7] [nM] | IC50 [8] [nM] | other results
1 | N#Cc1c(N)sc2c(F)ccc(-c3c(Cl)cc4c(N5CCC5CO)nc(OC[C@@]56CCCN5C[C@H](F)C6)nc4c3F)c12 (stereo partly drawn) [Example 209, 2-amino-4-(6-chloro-8-fluoro-2-(((2R,7aS)-2-fluorotetrahydro-1H-pyrrolizin-7a(5H)-yl)methoxy)-4-(2-(hydroxymethyl)azetidin-1-yl)quinazolin-7-yl)-7-fluorobenzo[b]thiophene-3-carbonitrile] | < 2 | 83 | 4 | 1690 | 9 | 68 | 93 | 15 | 2 | 27 | 47 | 7 | 2 |  |  |  |  |  |  |  | 
2 | N#Cc1c(N)sc2c(F)ccc(-c3c(F)cc4c(NCc5cn[nH]c5)nc(OC[C@@]56CCCN5C[C@H](F)C6)nc4c3F)c12 [Example 214, 4-(4-(((1H-pyrazol-4-yl)methyl)amino)-6,8-difluoro-2-(((2R,7aS)-2-fluorotetrahydro-1H-pyrrolizin-7a(5H)-yl)methoxy)quinazolin-7-yl)-2-amino-7-fluorobenzo[b]thiophene-3-carbonitrile] |  | > 10000 |  | > 10000 | 982 | > 10000 | > 10000 | 4690 |  | > 10000 | 5060 |  |  | 739 |  |  |  |  |  |  | 
3 | Cc1c(F)c(N)nc(-c2c(Cl)cc3c(NC(C)c4cccnc4N)nc(OC[C@@]45CCCN4C[C@H](F)C5)nc3c2F)c1C(F)(F)F (single isomer, unassigned; isomer 2) [Example 173] | 430 |  | 454 |  |  |  |  |  | 331 |  |  | 661 | 751 |  | 2900 | 95 | 244 | 1890 | 252 | 511 | IC50 [2]: > 10000 nM; IC50 ([6]; H2009 cells): 40 nM
4 | N#Cc1c(N)sc2c(F)ccc(-c3c(Cl)cc4c(NCC5CS(=O)(=O)C5)nc(OC[C@@]56CCCN5C[C@H](F)C6)nc4c3F)c12 [Example 222, 2-amino-4-(6-chloro-4-(((1,1-dioxidothietan-3-yl)methyl)amino)-8-fluoro-2-(((2R,7aS)-2-fluorotetrahydro-1H-pyrrolizin-7a(5H)-yl)methoxy)quinazolin-7-yl)-7-fluorobenzo[b]thiophene-3-carbonitrile] |  | 1110 |  | > 10000 | 207 | 1640 | 2560 | 273 |  | 1440 | 911 |  |  | 84 |  |  |  |  |  |  | 
5 | N#Cc1c(N)sc2c(F)ccc(-c3c(Cl)cc4c(N5CC6CCC(C5)N6)nc(OC[C@@]56CCCN5C/C(=C\F)C6)nc4c3F)c12 [Example 180, (R)-4-(4-((1R,5S)-3,8-diazabicyclo[3.2.1]octan-3-yl)-6-chloro-8-fluoro-2-(((S,Z)-2-(fluoromethylene)tetrahydro-1H-pyrrolizin-7a(5H)-yl)methoxy)quinazolin-7-yl)-2-amino-7-fluorobenzo[b]thiophene-3-carbonitrile] |  |  |  | 1370 |  |  |  | 40 |  |  |  |  |  | 10 | 72 | 54 | 139 | 1 | 512 | 81 | 
6 | N#Cc1c(N)sc2c(F)ccc(-c3c(Cl)cc4c(N5CC(O)C5)nc(OC[C@@]56CCCN5C[C@H](F)C6)nc4c3F)c12 [Example 219, 2-amino-4-(6-chloro-8-fluoro-2-(((2R,7aS)-2-fluorotetrahydro-1H-pyrrolizin-7a(5H)-yl)methoxy)-4-(3-hydroxyazetidin-1-yl)quinazolin-7-yl)-7-fluorobenzo[b]thiophene-3-carbonitrile] |  | 2250 |  | > 10000 | 370 | 3340 | 2900 | 508 |  | 1070 | 1120 |  |  | 266 |  |  |  |  |  |  | 
7 | COc1nc(OC[C@@]23CCCN2C[C@H](F)C3)nc2c(F)c(-c3ccc(F)c4sc(N)c(C#N)c34)c(Cl)cc12 [Example 220, 2-amino-4-(6-chloro-8-fluoro-2-(((2R,7aS)-2-fluorotetrahydro-1H-pyrrolizin-7a(5H)-yl)methoxy)-4-methoxyquinazolin-7-yl)-7-fluorobenzo[b]thiophene-3-carbonitrile] |  | 591 |  | 5870 | 63 | 261 | 202 | 49 |  | 123 | 134 |  |  | 45 |  |  |  |  |  |  | 
8 | N#Cc1c(N)sc2c(F)ccc(-c3c(Cl)cc4c(N5CC(CO)C5)nc(OC[C@@]56CCCN5C[C@H](F)C6)nc4c3F)c12 [Example 221, 2-amino-4-(6-chloro-8-fluoro-2-(((2R,7aS)-2-fluorotetrahydro-1H-pyrrolizin-7a(5H)-yl)methoxy)-4-(3-(hydroxymethyl)azetidin-1-yl)quinazolin-7-yl)-7-fluorobenzo[b]thiophene-3-carbonitrile] |  | 573 |  | 6040 | 154 | 635 | 962 | 145 |  | 1240 | 394 |  |  | 86 |  |  |  |  |  |  | 
9 | Cc1c(F)c(N)nc(-c2c(Cl)cc3c(NC(C)c4cccnc4N)nc(OC[C@@]45CCCN4C[C@H](F)C5)nc3c2F)c1C(F)(F)F (single isomer, unassigned; isomer 1) [Example 172] | 3 |  | < 2 |  |  |  |  |  | 3 |  |  | 34 | 11 |  | 841 | 15 | 111 | 794 | 111 | 182 | IC50 [2]: 4290 nM; IC50 ([6]; H2009 cells): 8 nM
